According to patent US20240166649A1, “DIHYDROPYRIMIDINE COMPOUND, PREPARATION METHOD THEREFOR AND APPLICATION THEREOF” (Shanghai Visonpharma Co., Ltd., priority 2021, published 2024):

What was measured:
[1] = system: HBV (hepatitis B virus) in HepG2.2.15 cells; assay: Cell-based anti-viral activity assay (HBV DNA in supernatant by quantitative PCR); details: 120 h, anti-HBV activity, HepG2.2.15 cells, 5 days, read-out: EC50 (HepG2.2.15)
Experimental: Cell-Based Anti-Viral Activity Assay
The Invention determined the anti-HBV (hepatitis B virus) activity of compounds in HepG2.2.15 cells (Table 1).
HepG2.2.15 is a cell line stably transfected with the HBV genome. HepG2.2.15 cells were cultured in DMEM (1X) with 10% fetal bovine serum (Corning), 100 U penicillin (Gibico), 100 μg/mL streptomycin (Gibico), 250 μg/mL geneticin (Gibco) and GlutaMAXTM-I medium (Invitrogen).
HepG2.2.15 cells were seeded into 96-well plates (4×10^4 cells in 100 μL of medium per well) and incubated overnight at 37° C. The test compounds were weighed and prepared as 10 mM stock solution with DMSO. The stock solutions of the compounds were diluted by a gradient of 3.16 times with DMSO, and then diluted by a gradient of 3.16 times with medium for 50 times. Finally, the diluted compound solutions were added to the cell plate with a total volume of 200 μL and the final DMSO concentration was 1%. The 96-well culture plates loaded with drugs were transferred to an incubator at 37° C. for 5 days. […] nucleic acid releasing agent was added to 96-well PCR reaction plate, and 2 μL of cell supernatant or HBV quantitative standards were added to the corresponding Wells. Centrifuged the plates to fully mix, and incubated at room temperature for 10 min to fully release nucleic acid. Quantified HBV DNA content by fluorescent quantitative PCR (CFX Connect Real-Time System) using Sanxiang Bio hepatitis B virus fluorescent quantitative diagnostic kit.
The standard curve was established by taking the logarithm of the copy number (IU/ml) of the HBV standard sample (log 10) as the abscordinate and the corresponding CT value as the ordinate. The copy number of the sample was calculated according to the corresponding CT of the positive sample and the standard curve, and the percentage of inhibition rate was calculated as follows: • % Inhibition=100-100*(sample HBV copy number−high concentration reference compound column HBV copy number)/DMSO column HBV copy number−high concentration reference compound column HBV copy number).

[2] = Cytotoxicity assay (CellTiter Glo); assay type: cell-based; details: human; HepG2.2.15 cells, five days post treatment
Experimental: The Invention Determined Cytotoxicity of the Compounds Against HepG2.2.15 Cells (Table 2)
HepG2.2.15 cells were seeded into 96-well plates (8000 cells per well) and cell viability was measured by the addition of 60 μL of CellTiter Glo reagent (Promega) five days post treatment with the compounds. Cell plates with CellTiter Glo added were shaken on a plate shaker for 20 min and then the chemiluminescence signal was stabilized at room temperature for 10 min. Chemiluminescence values were read using a microplate reader (Bio-TeK SYNERGY NEO2).
The concentration corresponding to 50% cytotoxicity (CC50) was fitted by graphpad prism software. The cytotoxicity was calculated by the formula: % Cytotoxicity=100−(chemiluminescence value of sample Well −average chemiluminescence value of blank medium column)/(average chemiluminescence value of DMSO column −average chemiluminescence value of blank medium column)*100

SMILES	EC50 [1] [nM]	CC50 at 5 days [2] [nM]
CCOC(=O)C1=C(CN2CCN3C(=O)N(C45CC(CC(=O)O)(C4)C5)C[C@@H]3C2)NC(c2nccs2)=N[C@H]1c1ccc(F)cc1Cl [Compound 35]	28	> 50000
CCOC(=O)C1=C(CN2CCN3C(=O)N(C45CCC(C(=O)O)(CC4)C5)C[C@@H]3C2)NC(c2nccs2)=N[C@H]1c1ccc(F)cc1Cl [Compound 60, 4-((S)-7-(((R)-6-(2-Chloro-4-Fluorophenyl)-5-(Ethoxycarbonyl)-2-(Thiazol-2-Yl)-3,6-Dihydropyrimidin-4-Yl)Methyl)-3-Oxohexahydroimidazo[1,5-a]Pyrazin-2(3H)-Yl)Bicyclo[2.2.1]Heptane-1-Carboxylic Acid]	9	> 50000
COC(=O)C1=C(CN2CCN3C(=O)N(C45CC(CC(=O)O)(C4)C5)C[C@@H]3C2)NC(c2nccs2)=N[C@H]1c1ccc(F)cc1Cl [Compound 38, 2-(3-((S)-7-(((R)-6-(2-Chloro-4-Fluorophenyl)-5-(Methoxycarbonyl)-2-(Thiazol-2-Yl)-3,6-Dihydropyrimidin-4-Yl)Methyl)-3-Oxohexahydroimidazo[1,5-a]Pyrazin-2 (3H)-Yl)Bicyclo[1.1.1]Pentane-1-Yl)Acetic Acid]	43	> 50000
CCOC(=O)C1=C(CN2CCN3C(=O)N(C45CCC(C(=O)O)(CC4)CC5)C[C@@H]3C2)NC(c2nccs2)=N[C@H]1c1ccc(F)cc1C [Compound 53, 4-((S)-7-(((S)-5-(Ethoxycarbonyl)-6-(4-Fluoro-2-Methylphenyl)-2-(Thiazol-2-Yl)-3,6-Dihydropyrimidin-4-Yl)Methyl)-3-Oxohexahydroimidazo[1,5-a]Pyrazin-2(3H)-Yl)Bicyclo[2.2.2]Octane-1-Carboxylic Acid]	9	> 50000
CCOC(=O)C1=C(CN2CCN3C(=O)N(C45C6C7C4C4C5C6C74C(=O)O)C[C@@H]3C2)NC(c2nccs2)=N[C@H]1c1cccc(F)c1C (stereo partly shown) [Compound 61]	17	> 50000
CCOC(=O)C1=C(CN2CCN3C(=O)N(C45CC(CO)(C4)C5)C[C@@H]3[C@H]2C(=O)O)NC(c2nccs2)=N[C@H]1c1cccc(F)c1C [Compound 33, (8S,8aR)-7-(((S)-5-(Ethoxycarbonyl)-6-(3-Fluoro-2-Methylphenyl)-2-(Thiazol-2-Yl)-3,6-Dihydropyrimidin-4-Yl)Methyl)-2-(3-(Hydroxymethyl)Bicyclo[1.1.1]Pentan-1-Yl)-3-Oxooctahydroimidazo[1,5-a]Pyrazine-8-Carboxylic Acid]	202	> 50000
CCOC(=O)C1=C(CN2CCN3C(=O)N(C45CC(C(=O)NC)(C4)C5)C[C@@H]3C2)NC(c2nccs2)=N[C@H]1c1cccc(F)c1C [Compound 26, Ethyl (S)-4-(3-Fluoro-2-Methylphenyl)-6-(((S)-2-(3-(Methylcarbamoyl)Bicyclo[1.1.1]Pentan-1-Yl)-3-Oxohexahydroimidazo[1,5-a]Pyrazin-7(1H)-Yl)Methyl)-2-(Thiazol-2-Yl)-1,4-Dihydropyrimidine-5-Carboxylate]	5	
CCOC(=O)C1=C(CN2CCN3C(=O)N(C45CC(CC(C)(C)C(=O)O)(C4)C5)C[C@@H]3C2)NC(c2nccs2)=N[C@H]1c1cccc(F)c1C [Compound 4]	8	
CCOC(=O)C1=C(CN2CCN3C(=O)N(C45CC(CC(=O)O)(C4)C5)C[C@@H]3C2)NC(c2nccs2)=N[C@H]1c1ccc(F)c(F)c1 [Compound 36]	48	
CCOC(=O)C1=C(CN2CCN3C(=O)N(C45CC(CC(C)(C)C(=O)O)(C4)C5)C[C@@H]3C2)NC(c2nccs2)=N[C@H]1c1ccc(F)cc1Cl [Compound 40]	12	
CCOC(=O)C1=C(CN2CCN3C(=O)N(C45CC(N(C)S(C)(=O)=O)(C4)C5)C[C@@H]3C2)NC(c2nccs2)=N[C@H]1c1cccc(F)c1C [Compound 11, Ethyl (S)-4-(3-Fluoro-2-Methylphenyl)-6-(((S)-2-(3-(N-Methylmethylsulfonamido)Bicyclo[1.1.1]Pentan-1-Yl)-3-Oxohexahydroimidazo[1,5-a]Pyrazin-7(1H)-Yl)Methyl)-2-(Thiazol-2-Yl)-1,4-Dihydropyrimidine-5-Carboxylate]	4	
CCOC(=O)C1=C(CN2CCN3C(=O)N(C45CC(CO)(C4)C5)C[C@@H]3C2C(=O)OCC)NC(c2nccs2)=N[C@H]1c1cccc(F)c1C (stereo partly drawn) [Compound 31, Ethyl (8aR)-7-(((S)-5-(Ethoxycarbonyl)-6-(3-Fluoro-2-Methylphenyl)-2-(Thiazol-2-Yl)-3,6-Dihydropyrimidin-4-Yl)Methyl)-2-(3-(Hydroxymethyl)Bicyclo[1.1.1]Pentan-1-Yl)-3-Oxooctahydroimidazo[1,5-a]Pyrazine-8-Carboxylate]	25	
COC(=O)C1=C(CN2CCN3C(=O)N(C45CC(CC(=O)O)(C4)C5)C[C@@H]3C2)NC(c2nccs2)=N[C@H]1c1ccc(F)c(F)c1C [Compound 41, 2-(3-((S)-7-(((S)-6-(3,4-Difluoro-2-Methylphenyl)-5-(Methoxycarbonyl)-2-(Thiazol-2-Yl)-3,6-Dihydropyrimidin-4-Yl)Methyl)-3-Oxohexahydroimidazo[1,5-a]Pyrazin-2(3H)-Yl)Bicyclo[1.1.1]Pentan-1-Yl)Acetic Acid]	8	
CCOC(=O)C1=C(CN2CCN3C(=O)N(C45CC(C(=O)N6CCOCC6)(C4)C5)C[C@@H]3C2)NC(c2nccs2)=N[C@H]1c1cccc(F)c1C [Compound 27, Ethyl (S)-4-(3-Fluoro-2-Methylphenyl)-6-(((S)-2-(3-(Morpholine-4-Carbonyl)Bicyclo[1.1.1]Pentan-1-Yl)-3-Oxohexahydroimidazo[1,5-a]Pyrazin-7(1H)-Yl)Methyl)-2-(Thiazol-2-Yl)-1,4-Dihydropyrimidine-5-Carboxylate]	6	
CCOC(=O)C1=C(CN2CCN3C(=O)N(C45CC(CS(C)(=O)=O)(C4)C5)C[C@@H]3C2)NC(c2nccs2)=N[C@H]1c1cccc(F)c1C [Compound 8, Ethyl (S)-4-(3-Fluoro-2-Methylphenyl)-6-(((S)-2-(3-((Methylsulfonyl)Methyl)Bicyclo[1.1.1]Pentan-1-Yl)-3-Oxohexahydroimidazo[1,5-a]Pyrazin-7(1H)-Yl)Methyl)-2-(Thiazol-2-Yl)-1,4-Dihydropyrimidine-5-Carboxylate]	4	
CCOC(=O)C1=C(CN2CCN3C(=O)N(C45CC(CNC(C)=O)(C4)C5)C[C@@H]3C2)NC(c2nccs2)=N[C@H]1c1cccc(F)c1C [Compound 15, ethyl (S)-6-(((S)-2-(3-(Acetamidomethyl)Bicyclo[1.1.1]Pentan-1-Yl)-3-Oxohexahydroimidazo[1,5-a]Pyrazin-7(1H)-Yl)Methyl)-4-(3-Fluoro-2-Methylphenyl)-2-(Thiazol-2-Yl)-1,4-Dihydropyrimidine-5-Carboxylate]	4	
CCOC(=O)C1=C(CN2CCN3C(=O)N(C45CC(C(N)=O)(C4)C5)C[C@@H]3C2)NC(c2nccs2)=N[C@H]1c1cccc(F)c1C [Compound 7, ethyl (S)-6-(((S)-2-(3-Carbamoylbicyclo[1.1.1]Pentan-1-Yl)-3-Oxohexahydroimidazo[1,5-a]Pyrazin-7(1H)-Yl)Methyl)-4-(3-Fluoro-2-Methylphenyl)-2-(Thiazol-2-Yl)-1,4-Dihydropyrimidine-5-Carboxylate]	7	
CCOC(=O)C1=C(CN2CCN3C(=O)N(C45CC(CNS(=O)(=O)C6CC6)(C4)C5)C[C@@H]3C2)NC(c2nccs2)=N[C@H]1c1cccc(F)c1C [Compound 23]	4	
CCOC(=O)C1=C(CN2CCN3C(=O)N(C45CC(C(=O)N6CCCC6)(C4)C5)C[C@@H]3C2)NC(c2nccs2)=N[C@H]1c1cccc(F)c1C [Compound 6, Ethyl (S)-4-(3-Fluoro-2-Methylphenyl)-6-(((S)-3-Oxo-2-(3-(Pyrrolidine-1-Carbonyl)Bicyclo[1.1.1]Pentan-1-Yl)Hexahydroimidazo[1,5-a]Pyrazin-7(1H)-Yl)Methyl)-2-(Thiazol-2-Yl)-1,4-Dihydropyrimidine-5-Carboxylate]	8	
